# Data published in patent US11065253B2, “Arylquinazolines” (Merck Patent GmbH, priority 2013, dated 2021).
# System: phospho-serine 2056 DNA-PK in HCT116 cells
# Experiment: DNA-PK phosphorylation at serine 2056 (cellular), ELISA in bleomycin-treated HCT116 cells
# Type: cell-based
# Conditions: Homo sapiens, HCT-116, 6 h, cellular; HCT116 cells, 10 μM bleomycin, six hours; read-out: IC50 pDNA-PK
# Method in brief: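 HCT116 cells were treated with 10 μM bleomycin plus test compounds for six hours at 37 °C. Phospho-Ser2056 DNA-PK measured by chemiluminescent ELISA, normalised to total DNA-PKcs signal; DMSO control as blank.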
row,IC50,Compound
1,10 to 30 µM,"OC(c1ccc(F)c(-c2ncnc3cc(N4CCOCC4)ccc23)c1)c1cnccn1 (stereo not shown) [Example 33, [4-Fluoro-3-(7-morpholin-4-yl-quinazolin-4-yl)phenyl]-pyrazin-2-ylmethanol]"
2,< 0.5 µM,"COc1nccnc1C(O)c1ccc(F)c(-c2ncnc3cc(N4CCOCC4)ccc23)c1 (stereo not shown) [Example 15, [4-Fluoro-3-(7-morpholin-4-yl-quinazolin-4-yl)phenyl]-(3-methoxy-pyrazin-2-yl)methanol]"
3,0.5 to 5 µM,"OC(c1ccc2nccn2n1)c1cc(-c2ncnc3cc(N4CCOCC4)ccc23)c(F)cc1Cl (stereo not shown) [Example 56, [2-Chloro-4-fluoro-5-(7-morpholin-4-yl-quinazolin-4-yl)phenyl]-imidazo[1,2-b]pyridazin-6-ylmethanol]"
4,0.5 to 5 µM,"OC(c1ccc(Cl)nn1)c1cc(-c2ncnc3cc(N4CCOCC4)ccc23)c(F)cc1F (stereo not shown) [Example 49, (6-Chloro-pyridazin-3-yl)-[2,4-difluoro-5-(7-morpholin-4-yl-quinazolin-4-yl)phenyl]-methanol]"
5,< 0.5 µM,"Cn1c(C(O)c2ccc(F)c(-c3ncnc4cc(N5CCOCC5)ccc34)c2)cccc1=O (stereo not shown) [Example 91, 6-{[4-Fluoro-3-(7-morpholin-4-yl-quinazolin-4-yl)-phenyl]hydroxy-methyl}-1-methyl-1H-pyridin-2-one]"
6,0.5 to 5 µM,"O=c1ccc(C(O)c2cc(-c3ncnc4cc(N5CCOCC5)ccc34)c(F)cc2Cl)nn1C1CC1 (stereo not shown) [Example 95, 6-{[2-Chloro-4-fluoro-5-(7-morpholin-4-yl-quinazolin-4-yl)phenyl]-hydroxymethyl}-2-cyclopropyl-2H-pyridazin-3-one]"

# Same assay, conditions: Homo sapiens, HCT-116, cellular DNA-PK phosphorylation at serine 2056, HCT116 cells; read-out: IC50 pDNA-PK
row,IC50,Compound
1,< 0.5 µM,"OC(c1cc(-c2ncnc3cc(N4CCOCC4)ccc23)ccc1F)c1ncnc2ccsc12 (stereo not shown) [Example 405, [2-Fluoro-5-(7-morpholin-4-yl-quinazolin-4-yl)-phenyl]thieno[3,2-d}-pyrimidin-4-yl-methanol]"
2,10 to 30 µM,"O=C1CCCN1c1nccnc1C(O)c1ccc(F)c(-c2ncnc3cc(N4CCOCC4)ccc23)c1 (stereo not shown) [Example 425, 1-(3-{[4-Fluoro-3-(7-morpholin-4-yl-quinazolin-4-yl)-phenyl]hydroxy-methyl}pyrazin-2-yl)-pyrrolidin-2-one]"
3,0.5 to 5 µM,"COc1cncnc1C(O)c1cc(-c2ncnc3cc(N4CCOCC4)ccc23)ccc1Cl (stereo not shown) [Example 408, [2-Chloro-5-(7-morpholin-4-yl-quinazolin-4-yl)-phenyl]-(5-methoxy-pyrimidin-4-yl)-methanol (Ena 2)]"
4,0.5 to 5 µM,"Cn1cnc2c(C(O)c3cc(-c4ncnc5cc(N6CCOCC6)ccc45)ccc3Cl)ncnc21 (stereo not shown) [Example 371, [2-Chloro-5-(7-morpholin-4-yl-quinazolin-4-yl)-phenyl]-(9-methyl-9H-purin-6-yl)-methanol]"
5,0.5 to 5 µM,"OC(c1cc(-c2ncnc3cc(N4CCOCC4)ccc23)ccc1F)c1cccc2nncn12 (stereo not shown) [Example 373, [2-Fluoro-5-(7-morpholin-4-yl-quinazolin-4-yl)-phenyl]-[1,2,4]-triazolo[4,3-a]pyridin-5-ylmethanol]"
6,< 0.5 µM,"CCOc1cccnc1C(O)c1ccc(F)c(-c2ncnc3cc(N4CCOCC4)ccc23)c1 (stereo not shown) [Example 463, (3-Ethoxy-pyridin-2-yl)-[4-fluoro-3-(7-morpholin-4-yl-quinazolin-4-yl)-phenyl]methanol]"
7,< 0.5 µM,"OC(c1cc(-c2ncnc3cc(N4CCOCC4)ccc23)c(F)cc1Cl)c1ncnc2ccoc12 (stereo not shown) [Example 440, [2-Chloro-4-fluoro-5-(7-morpholin-4-yl-quinazolin-4-yl)-phenyl]furo[3,2-d}-pyrimidin-4-yl-methanol]"

# Same assay, conditions: Homo sapiens, HCT-116, phospho-serine 2056 DNA-PK, bleomycin-treated HCT116 cells; class symbols A-D; read-out: IC50 pDNA-PK
row,IC50,Compound
1,0.5 to 5 µM,"Cn1nc(C(O)c2cc(-c3ncnc4cc(N5CCOCC5)ccc34)c(F)cc2F)ccc1=O (stereo not shown) [Example 219, 6-{[2,4-Difluoro-5-(7-morpholin-4-yl-quinazolin-4-yl)-phenyl]hydroxy-methyl}-2-methyl-2H-pyridazin-3-one]"
2,0.5 to 5 µM,"N#CCCOc1ccc(C(O)c2cc(-c3ncnc4cc(N5CCOCC5)ccc34)c(F)cc2Cl)nn1 (stereo not shown) [Example 107, 3-(6-{[2-Chloro-4-fluoro-5-(7-morpholin-4-yl-quinazolin-4-yl)-phenyl]hydroxy-methyl}pyridazin-3-yl-oxy)propionitrile]"
3,5 to 10 µM,"COc1cc(C)c(C(O)c2cc(-c3ncnc4cc(N5CCOCC5)ccc34)c(F)cc2Cl)nn1 (stereo not shown) [Example 109, [2-Chloro-4-fluoro-5-(7-morpholin-4-yl-quinazolin-4-yl)-phenyl]-(6-methoxy-4-methylpyridazin-3-yl)methanol]"
4,0.5 to 5 µM,"OC(c1cn2ccnc2cn1)c1cc(-c2ncnc3cc(N4CCOCC4)ccc23)c(F)cc1F (stereo not shown) [Example 223, [2,4-Difluoro-5-(7-morpholin-4-yl-quinazolin-4-yl)-phenyl]imidazo-[1,2-a]pyrazin-6-yl-methanol]"
5,0.5 to 5 µM,"OC(c1ccc2ncnn2c1)c1cc(-c2ncnc3cc(N4CCOCC4)ccc23)c(F)cc1F (stereo not shown) [Example 222, [2,4-Difluoro-5-(7-morpholin-4-yl-quinazolin-4-yl)-phenyl]-[1,2,4]-triazolo[1,5-a]pyridin-6-ylmethanol]"
6,10 to 30 µM,"OC(c1ccc(F)c(-c2ncnc3cc(N4CCOCC4)ncc23)c1)c1nccs1 (stereo not shown) [Example 140, [4-Fluoro-3-(7-morpholin-4-yl-pyrido[4,3-d}-pyrimidin-4-yl)-phenyl]thiazol-2-yl-methanol]"
7,0.5 to 5 µM,"CC(O)c1csc(C(O)c2cc(-c3ncnc4cc(N5CCOCC5)ccc34)c(F)cc2Cl)n1 (stereo not shown) [Example 201, 1-(2-{[2-Chloro-4-fluoro-5-(7-morpholin-4-yl-quinazolin-4-yl)-phenyl]hydroxy-methyl}thiazol-4-yl)-ethanol]"
8,0.5 to 5 µM,"OC(c1cc(F)c(F)c(-c2ncnc3cc(N4CCOCC4)ccc23)c1)c1nccs1 (stereo not shown) [Example 171, [3,4-Difluoro-5-(7-morpholin-4-yl-quinazolin-4-yl)-phenyl]thiazol-2-yl-methanol]"
9,5 to 10 µM,"Cc1nc(C(O)c2ccc(F)c(-c3ncnc4cc(N5CCOCC5)ccc34)c2)sc1CO (stereo not shown) [Example 200, [4-Fluoro-3-(7-morpholin-4-yl-quinazolin-4-yl)-phenyl]-(5-hydroxy-methyl-4-methyl-thiazol-2-yl)-methanol]"

# Same assay, conditions: Homo sapiens, HCT-116, phospho-serine 2056 DNA-PK, bleomycin-treated HCT116 cells; read-out: IC50 pDNA-PK
row,IC50,Compound
1,< 0.5 µM,"Cc1cnc(C(O)c2ccc(F)c(-c3ncnc4cc(N5CCOCC5)ccc34)c2)c(C)n1 (stereo not shown) [Example 354, (3,5-Dimethyl-pyrazin-2-yl)-[4-fluoro-3-(7-morpholin-4-yl-quinazolin-4-yl)-phenyl]methanol]"
2,< 0.5 µM,"OC(c1cc(-c2ncnc3cc(N4CCOCC4)ccc23)c(F)cc1F)c1nncc2ccsc12 (stereo not shown) [Example 342, [2,4-Difluoro-5-(7-morpholin-4-yl-quinazolin-4-yl)-phenyl]thieno[2,3-d}-pyridazin-7-yl-methanol]"
3,10 to 30 µM,"COc1ccc(C(C(N)=O)c2cc(-c3ncnc4cc(N5CCOCC5)ccc34)c(F)cc2F)nn1 (stereo not shown) [Example 306, 2-[2,4-Difluoro-5-(7-morpholin-4-yl-quinazolin-4-yl)-phenyl]-2-(6-methoxy-pyridazin-3-yl)acetamide]"
4,5 to 10 µM,"COc1nccnc1C(C(N)=O)c1cc(-c2ncnc3cc(N4CCOCC4)ccc23)c(F)cc1F (stereo not shown) [Example 319, 2-[2,4-Difluoro-5-(7-morpholin-4-ylquinazolin-4-yl)phenyl]-2-(3-methoxypyrazin-2-yl)-acetamide]"
5,5 to 10 µM,"NC(=O)C(c1ccc(F)c(-c2ncnc3cc(N4CCOCC4)ccc23)c1)c1nnc(Cl)c2ccsc12 (stereo not shown) [Example 290, 2-(4-Chlorothieno-[2,3-d}pyridazin-7-yl)-2-[4-fluoro-3-(7-morpholin-4-yl-quinazolin-4-yl)-phenyl]acetamide]"
6,0.5 to 5 µM,"Cn1nc(C(O)c2ccc(F)c(-c3ncnc4cc(N5CCOCC5)ccc34)c2)ccc1=O (stereo not shown) [Example 326, 6-{[4-Fluoro-3-(7-morpholin-4-yl-quinazolin-4-yl)-phenyl]hydroxy-methyl}-2-methyl-2H-pyridazin-3-one]"
7,< 0.5 µM,"[2H]c1c(N2CCOCC2)cc2ncnc(-c3cc(C(O)c4ccc(OC)nn4)c(Cl)cc3F)c2c1[2H] (stereo not shown) [Example 225, [2-Chloro-5-(5,6-dideuterio-7-morpholino-quinazolin-4-yl)-4-fluorophenyl]-(6-methoxypyridazin-3-yl)methanol]"
8,< 0.5 µM,"Cc1nccnc1[C@H](O)c1ccc(F)c(-c2ncnc3cc(N4CCOCC4)cnc23)c1 [Example 234, (R)-[4-Fluoro-3-(7-morpholin-4-yl-pyrido[3,2-d}-pyrimidin-4-yl)-phenyl]-(3-methyl-pyrazin-2-yl)-methanol]"

# Same assay, conditions: cellular DNA-PK phosphorylation at serine 2056, HCT116 cells; read-out: IC50 pDNA-PK
row,IC50,Compound
1,0.5 to 5 µM,"Cn1c(C(O)c2cc(-c3ncnc4cc(N5CCOCC5)ccc34)c(F)cc2F)cccc1=O (stereo not shown) [Example 381, 6-{[2,4-Difluoro-5-(7-morpholin-4-yl-quinazolin-4-yl)-phenyl]hydroxy-methyl}-1-methyl-1H-pyridin-2-one (Ena 1)]"
2,0.5 to 5 µM,"Cc1cncnc1C(O)c1cc(-c2ncnc3cc(N4CCOCC4)ccc23)ccc1Cl (stereo not shown) [Example 419, [2-Chloro-5-(7-morpholin-4-yl-quinazolin-4-yl)-phenyl]-(5-methyl-pyrimidin-4-yl)-methanol]"
3,0.5 to 5 µM,"COc1cncnc1C(O)c1cc(-c2ncnc3cc(N4CCOCC4)ccc23)ccc1Cl (stereo not shown) [Example 413, [2-Chloro-5-(7-morpholin-4-yl-quinazolin-4-yl)-phenyl]-(5-methoxy-pyrimidin-4-yl)-methanol]"

row,Compound,IC50
1,"OC(c1ccc(F)c(-c2ncnc3cc(N4CCOCC4)ccc23)c1)c1nccnc1I (stereo not shown) [Example 462, [4-Fluoro-3-(7-morpholin-4-yl-quinazolin-4-yl)-phenyl]-(3-iodo-pyrazin-2-yl)-methanol]",< 0.5 µM
